What was measured:
Format in all cases: biochemical
[1] = target: T1, ChTS-DHFR (thymidylate synthase-dihydrofolate reductase), TS activity (Cryptosporidium hominis, UniProt A0A0S4TER9); test: radiolabeled CH2H4F to H2F turnover by HPLC, single concentration […]
[2] = target: human TS (thymidylate synthase, hTS) (Homo sapiens, UniProt P04818); test: TS activity assay, enzyme preincubated with compound without dUMP, […]
[3] = target: T1, ChTS-DHFR (thymidylate synthase-dihydrofolate reductase), TS activity

Sequence of human TS (thymidylate synthase, hTS) (P04818 2-313): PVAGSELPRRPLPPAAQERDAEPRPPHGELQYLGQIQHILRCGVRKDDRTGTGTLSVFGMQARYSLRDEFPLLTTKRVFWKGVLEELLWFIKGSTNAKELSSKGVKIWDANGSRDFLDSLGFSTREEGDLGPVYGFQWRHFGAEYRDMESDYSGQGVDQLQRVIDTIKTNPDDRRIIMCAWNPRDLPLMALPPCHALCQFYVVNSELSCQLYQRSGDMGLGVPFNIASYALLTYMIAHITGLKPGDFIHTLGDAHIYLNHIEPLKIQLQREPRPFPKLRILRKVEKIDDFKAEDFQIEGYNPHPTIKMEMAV

CD 11057 [compound 7]
% Inhibition of ChTS Activity at 500 μM [1]: 46.0 ± 0.8

HTS 03850 [compound 2]
% Inhibition of ChTS Activity at 500 μM [1]: 76 ± 9

HTS 00950 [compound 6]
% inhibition at 500 uM [2]: ~ 50 | IC50 [3]: 172 ± 11 µM

HTS 00967 [compound 10]
% Inhibition of ChTS Activity at 500 μM [1]: 55 ± 1
